The numbers were not newly measured in patent US7838544B2, “Heterocyclic inhibitors of 11-β hydroxyl steroid dehydrogenase type 1 and methods of using the same” (Incyte Corporation, priority 2006, dated 2010), which cites them from elsewhere.

This series addresses T1, 11βHSD1 in the eye (Homo sapiens, UniProt P28845).
T1 construct: host or cells: eye of healthy volunteers, in vivo (11βHSD1 localized to non-pigmented epithelial cells)
Particulars: healthy volunteers, after seven days of carbenoxolone treatment.

Each structure is given as a SMILES string.

T1 sequence (P28845 whole entry): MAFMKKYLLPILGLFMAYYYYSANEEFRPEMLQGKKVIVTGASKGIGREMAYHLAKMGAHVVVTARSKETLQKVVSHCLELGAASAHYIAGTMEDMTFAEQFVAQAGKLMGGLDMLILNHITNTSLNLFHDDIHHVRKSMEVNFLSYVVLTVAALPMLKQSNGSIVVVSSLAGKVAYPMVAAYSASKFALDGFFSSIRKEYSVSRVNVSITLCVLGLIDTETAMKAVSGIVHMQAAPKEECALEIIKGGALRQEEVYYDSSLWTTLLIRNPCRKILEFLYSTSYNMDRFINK

On to `CC1(C)[C@@H](OC(=O)CCC(=O)O)CC[C@]2(C)[C@H]3C(=O)C=C4[C@@H]5C[C@@](C)(C(=O)O)CC[C@]5(C)CC[C@@]4(C)[C@]3(C)CC[C@@H]12` [carbenoxolone], for which the “reduction of intra-ocular pressure (IOP)” value is 18%.
